Experimental data as given in patent US8354438B2, “Neurological functions” (priority 2001, dated 2013).
Where a name gives a salt, the structure may show the parent alone. Read-outs that look alike come from different tables or passages of the source. Marks after values point to notes of the source that are not given here.

Key:
[1] = test system: Helicobacter pylori; settings: Matsukura and Tanaka 2000; cited from earlier work
[2] = test system: children with ASD; assay: Subsequent long-term observation of children with ASD on DH; type: in vivo, human
Text: We have subsequently followed over 100 children with ASD on DH for up to 20 months since the conclusion of this study. […] Further long-term use of cholinesterase inhibitors may lead to greater understanding of the possible ability to sustain new neuronal connections in a brain that has more neuronal plasticity than the elderly with Alzheimer's Disease.

[3] = test system: children with Autistic spectrum disorders; settings: for Rec. Speech Age (N = 31) / CARS (N = 35) / Exp. Speech Age (N = 31): Group I combined with Group II
Text: American Psychiatric Association. Diagnostic and Statistical Manual of Mental Disorders (4th ed.). Washington, D.C.: Author 1994. Diagnosis was confirmed by a pediatric neurologist after completing a comprehensive neurological evaluation and also by a clinical interview with a clinical psychologist. No child was excluded based upon intelligence estimate or developmental language level.
We included patients with abnormal electroencephalograns (EEGs) as they represent an important section of the ASD population. Hollander, E. et al., J. Clin. Psychiatry 2001; 62(7): 530-534. […] Hollander, E. et al., J. Clin. Psychiatry 2001; 62(7): 530-534 DiMartino, A. and Tuchman, R. F., Pediatric Neurology 2001; 25(3): 199-207. Other patients were maintained on corticosteroids (N=6, pulse-dose prednisone or prednisolone), CNS stimulants (N=8, dextroamphetamine/amphetamine or methylphenidate), antidepressants (N=7, fluoxetine hydrochloride or paroxetine), antipsychotics (N=4, risperidone), or alpha adrenergic blocking agents (N=9, clonidine).
The standard donepezil dosage recommendation of 5 milligrams was halved in accordance with pediatric protocols to arrive at a quantity of 2.5 milligrams. The duration of the double-blind, parallel trial was six weeks, at which time all subjects entered open-label treatment for an additional six weeks.
The dose was lowered to 1.25 milligrams or discontinued throughout the 12-week trial if adverse events persisted for more than one week (e.g., irritability, hyperactivity, or gastrointestinal problems). The maximum daily dose was 2.5 milligrams. The medication was adjusted by halving the dose (1.25 mg) if parents noted their children to have tolerable yet persistent gastrointestinal distress, hyperactivity, or irritability. Medication was discontinued if GI intolerability or changes in behavior were considered to be an adverse event (i.e., persisted for more than […]). Medication was administered at dinnertime, unless restlessness occurred in sleep, in which case administration was changed to an earlier time in the day. Dinnertime was selected as the preferred administration time in an attempt to alleviate gastrointestinal side effects observed in the dementia population.
All staff, including nurses, were blinded to the status of the patients on either placebo or drug during the six-week double-blind phase. Patient progress and side effects were monitored at the scheduled appointments by study coordinators, nursing staff, and the primary investigator. Gardner's Receptive One-Word Picture Vocabulary Test (ROWPVT), the EOWPVT-R, and the Childhood Autism Rating Scale (CARS) were administered at baseline, 6-week, and 12-week follow-up visits by the same study coordinator (R.T.):
Outcome Measures: The Receptive One-Word Picture Vocabulary Test, Gardner, M. F. Receptive One-Word Picture Vocabulary Test: ROWPVT. Novato, Calif.: Academic Therapy Publications 1985, examines a child's understanding of language and is an effective tool for assessing receptive language in children with expressive language difficulties. The test was developed for children ages two through twelve. Participants are shown a group of four pictures and asked to point to the picture corresponding to the word presented aurally by the clinician. The test is completed when the child makes six errors of eight consecutive items.
The Expressive One-Word Picture Vocabulary Test—Revised can be used as a tool to determine auditory-visual-verbal association ability as well as expressive language functioning in young children ages two through 12. Gardner, M. F. Expressive One-Word Picture Vocabulary Test (Revised): EOWPVT-R. Novato, Calif.: Academic Therapy Publications 1990. The test was developed to address general concrete concepts, grouping, abstract concepts, and descriptive concepts.

[4] = Group I (DH), Baseline to Week 6, placebo group 30%
[5] = Group I (DH, DH) N = 23, BASELINE
[6] = Group I (DH, DH), DH 2.5 milligrams, 6-WEEK, p < .05, BL compared to 6 week
[7] = Group I (DH, DH), DH 2.5 milligrams, 12-WEEK, p < .05, BL compared to 6 and 12 week

For `NCCC(=O)[N-][C@@H](Cc1c[nH]cn1)C(=O)[O-].[Zn+2]` [L-CAZ], the Helicobacter pylori inhibition [1] is given as “inhibited”.

With `COc1cc2c(cc1OC)C(=O)C(CC1CCN(Cc3ccccc3)CC1)C2` (stereo not shown) [DH, donepezil hydrochloride] the “long-term deficits or down-regulation effect” value ([2]; over 100 children with ASD on DH for up to 20 months) was “No obvious long-term deficits or suspected down-regulation effect”, the “regressions or lost skills after stopping the medication” value ([2]; patients stopped the medication after 6 additional months) was “no patients had major regressions or lost skills” and the “children with CARS change scores ([Baseline]-[6 Week score]) indicating improvement of 3.0 or greater” value [3, 4] was 50%. For the same compound, the “children with clinically meaningful worsening of CARS scores” value [3, 4] was 12.5%, the CARS [3, 5] was 34.7 (SD = 7.7) and the “Exp. Speech Age (mos.)” value [3, 5] was 35.7 (SD = 27.8) mos. For the same compound, the “Rec. Speech Age (mos.)” value [3, 5] was 38.8 (SD = 23.5) mos, the CARS ([3]; Group I (DH, DH), DH 2.5 milligrams, 6-WEEK) was 33.3 (SD = 8.0) and the “Exp. Speech Age (mos.)” value [3, 6] was 43.3 (SD = 27.2)* mos. For the same compound, the “Rec. Speech Age (mos.)” value [3, 6] was 50.3 (SD = 27.0)* mos, the “Exp. Speech Age (mos.)” value [3, 7] was 42.5 (SD = 28.5)*** mos and the “Rec. Speech Age (mos.)” value [3, 7] was 49.7 (SD = 34.2)*** mos. The CARS ([3]; Group I (DH, DH), DH 2.5 milligrams, 12-WEEK, p < .05, BL compared to 12 week) was 30.8 (SD = 7.9)**, the “Rec. Speech Age (N = 31)” value ([3]; 6-weeks DH, p value .002) was 53.2 (SD = 25.8) and the “CARS (N = 35)” value ([3]; 6-weeks DH, p value .004) was 32.2 (SD = 8.5). For the same compound, the “Exp. Speech Age (N = 31)” value ([3]; 6-weeks DH, p value .044) was 43.6 (SD = 31.8), the “CARS (N = 35)” value ([3]; BASELINE before six weeks DH) was 34.7 (SD = 7.4) and the “Exp. Speech Age (N = 31)” value ([3]; BASELINE before six weeks DH) was 39.3 (SD = 27.9). The “Rec. Speech Age (N = 31)” value ([3]; BASELINE before six weeks DH) was 43.7 (SD = 22.2), the “Exp. Speech Age (mos.)” value ([3]; Group II (Placebo, DH): six weeks placebo then six weeks DH, 12-WEEK, end of placebo 33.8 (SD = 32.9), reduced N (=16), p < .05) was 40.9 (SD = 38.8)***^@ mos and the “Rec. Speech Age (mos.)” value ([3]; Group II (Placebo, DH): six weeks placebo then six weeks DH, 12-WEEK, end of placebo 39.83 (SD = 27), reduced N (=16), p < .05, 6 compared to 12 week) was 87.37 (SD = 14.2)**^@ mos. The CARS ([3]; Group II (Placebo, DH): six weeks placebo then six weeks DH, 12-WEEK, end of placebo (6-WEEK) 32.9 (SD = 7.7), p < .05) was 30.9 (SD = 9.1)*, the “patients dropped from the study after the first 6 weeks who had been on DH” value ([3]; of nine patients dropped) was 6/9 and the “patients discontinued due to diarrhea or stomach cramping” value ([3]; of the 6 dropped patients on DH) was 2 patients.
